Data: patent US20210267929A1, “COMPOSITIONS AND METHODS FOR TREATMENT OF ORAL ULCERATION AND ORAL MUCOSITIS” (CelaCare Technologies, Inc., priority 2018, published 2021)
Values after ≈ are worked out from the molar mass of the structure shown.

How the values were obtained:
[1] = assay type: cell-based
Experimental: The product has been evaluated for cytotoxicity and deemed to be non-cytotoxic using a standard protocol at a GLP laboratory. […] A safety study for acemannan in humans was conducted to evaluate its effect in the treatment of oral aphthous ulcers. The initial study of 50 healthy patients received 0.5% acemannan incorporated into a Carbopol thickener applied to the oral mucosa of the lower lip three times a day for 7 days. Oral exams and kidney and liver function were evaluated prior to and at the end of the study. […] Since the present compositions are utilized as an oral rinse, acemannan is not expected to be absorbed systemically through the mucosa and will merely coat the patients' mouths. Acemannan has also previously been cleared to market in oral device products. Based on current safety data on the ingredients incorporated into the compositions and the 14-day duration of use for patients in the study, the compositions will not provide significant patient risks when dosed as intended.

healthy patients = details: in vivo; cited from earlier work
[2] = tested on: Issatchenkia orientalis ATCC 5258 (formerly known as Candida krusei); details: expected control range; cited from earlier work
[3] = tested on: Candida parapsilosis ATCC 22019; experiment: Broth microdilution MIC (EUCAST), oral rinse vs marketed antifungals; assay type: cell-based; details: 35° C., 48 hours, at least 50% OD530 inhibition; for MIC: Lodderomyces parapsilosis, ATCC22019, RPMI + 2% glucose, read-out: MIC (mg/L) Mean
Text: (§1) The purpose of this experiment was to determine the potency of one embodiment of the oral rinse on different Candida species, namely Candida albicansATCC 10231 and ATCC 24433, Candida glabrataATCC 15126, Candida krusei (Issechenkia orientalis)ATCC 6258, Candida parapsilosisATCC 22019, and Candida tropicalisATCC 1369, to determine the minimum inhibitory concentration (MIC) of the oral rinse on each species. The oral rinse was compared to current antifungal treatments on the market.
(§2) The embodiment of the oral rinse 150528 tested in this experiment included 10 μg/mL silver citrate complex, 3 mg/mL acemannan, 5 mg/mL Disodium EDTA, 0.1 mg/mL Hyaluronic acid, 2 mg/mL PVP, 3.5 mg/ml of masking and cherry flavor, purified water, pH adjustment with tris(hydroxymethyl)aminomethane to a pH of 6.59. The current antifungal treatments that were tested and compared were Fluconazole (Sigma-Aldrich, Cat: PHR1160-1G, Lot LRAA6502) a Nystatin suspension (Sigma-Aldrich, Cat: N6261-SMU, Lot 020M13491V), and Gentian Violet (1% Humco, Cat: NDC 0395-1003-92, Lot547845).
(§3) The antimicrobial activity of the oral rinse solution as described above, Example 1, was tested using the micro-tube dilution method described in the Method for Determination of Broth Dilution MICs of Antifungal agents for fermentative yeasts, published by the European Committee for Antimicrobial Susceptibility Testing (EUCAST). In brief, a standard inoculum of each microorganism was prepared by diluting a 0.5 MacFarland turbidity standard of the microorganism 1:100 in RPMI media without sodium bicarbonate plus 2% glucose. Then, 100 μL of the standard inoculum was added to equal volumes of two-fold serial dilutions of the oral rinse solution or controls, and the plates were incubated at 35° C. for 48 hours. MICs were determined photometrically as the lowest antimicrobial agent concentration (last well in the dilution series) that inhibited OD530 absorbance at least 50%. Each experiment was performed three times, with each antimicrobial agent tested in duplicate or triplicate.

[4] = tested on: Candida albicans ATCC 10231; experiment: as above; assay type: cell-based; details: 35° C., 48 hours, at least 50% OD530 inhibition; for MIC: ATCC10231, RPMI + 2% glucose, read-out: MIC (mg/L) Mean
Text: as §1, §2, §3

[5] = tested on: Issatchenkia orientalis ATCC 6258 (formerly known as Candida krusei); experiment: as above; assay type: cell-based; details: 35° C., 48 hours, at least 50% OD530 inhibition; for MIC: Pichia kudriavzevii, ATCC6258, RPMI + 2% glucose, read-out: MIC (mg/L) Mean
Text: as §1, §2, §3

[6] = tested on: Candida tropicalis ATCC 1369; experiment: as above; assay type: cell-based; details: 35° C., 48 hours, at least 50% OD530 inhibition; for MIC: ATCC1369, RPMI + 2% glucose, read-out: MIC (mg/L) Mean
Text: as §1, §2, §3

[7] = tested on: Candida albicans ATCC 24433; experiment: as above; assay type: cell-based; details: 35° C., 48 hours, at least 50% OD530 inhibition; for MIC: ATCC24433, RPMI + 2% glucose, read-out: MIC (mg/L) Mean
Text: as §1, §2, §3

[8] = tested on: Candida glabrata ATCC 15126; experiment: as above; assay type: cell-based; details: 35° C., 48 hours, at least 50% OD530 inhibition; for MIC: Nakaseomyces glabratus, ATCC15126, RPMI + 2% glucose, read-out: MIC (mg/L) Mean
Text: as §1, §2, §3

[9] = tested on: Candida parapsilosis ATCC 22019; experiment: Broth microdilution MIC (CLSI M27), oral rinses, silver API and controls; assay type: cell-based; details: 35° C., 24 hours, at least 50% OD530 inhibition; for MIC: Lodderomyces parapsilosis, ATCC22019, CLSI M27, RPMI, read-out: MIC (mg/L) Mean
Experimental: (§4) This experiment tested two examples of the oral rinse in the treatment of three different Candida organisms associated with oral mucositis. The embodiments of the Oral Rinses tested in this experiment were: • Oral Rinse 170915-10 μg/mL silver citrate complex, 4 mg/mL acemannan, 5 mg/mL Disodium EDTA, 0.1 mg/mL Hyaluronic acid, 2 mg/mL PVP, 5.75 mg/ml of masking and cherry flavor, purified water, pH adjustment with tris(hydroxymethyl)aminomethane to a pH of 6.36. • Oral Rinse 170719-8 μg/mL silver citrate complex, 3.9 mg/mL acemannan, 5 mg/mL Disodium EDTA, 0.1 mg/mL Hyaluronic acid, 2 mg/mL PVP, 5.75 mg/ml of masking agent and cherry flavor, purified water, pH adjustment with tris(hydroxymethyl)aminomethane to a pH of 6.38.
(§5) The antimicrobial activity of two oral rinse solutions as described above, Example 2, was tested using the microtube dilution method described in the Clinical and Laboratory Standards Institute (CLSI) Reference Method for Broth Dilution Antifungal Susceptibility Testing of Yeasts, M27-4. In brief, a standard inoculum of each microorganism was prepared by diluting a 0.5 MacFarland turbidity standard of the microorganism 1:100 in RPMI media without sodium bicarbonate. Then, 100 μL of the standard inoculum was added to equal volumes of two-fold serial dilutions of the silver API (active pharmaceutical ingredient, silver citrate complex), controls, or the oral rinse solution, and the plates were incubated at 35° C. for 24 hours. MICs were determined photometrically as the lowest antimicrobial agent concentration (last well in the dilution series) that inhibited OD530 absorbance at least 50%. Each experiment was performed three times, with each antimicrobial agent tested in duplicate or triplicate.

[10] = tested on: Issatchenkia orientalis ATCC 5258 (formerly known as Candida krusei); experiment: as above; assay type: cell-based; details: 35° C., 24 hours, at least 50% OD530 inhibition; for MIC: Pichia kudriavzevii, ATCC5258, CLSI M27, RPMI, read-out: MIC (mg/L) Mean
Experimental: as §4, §5

[11] = tested on: Candida albicans ATCC 24433; experiment: as above; assay type: cell-based; details: 35° C., 24 hours, at least 50% OD530 inhibition; for MIC: ATCC24433, CLSI M27, RPMI, read-out: MIC (mg/L) Mean
Experimental: as §4, §5

[12] = tested on: Candida parapsilosis ATCC 22019; details: expected control range; cited from earlier work
[13] = tested on: Staphylococcus aureus ATCC 29213; experiment: Microtube dilution MIC (CLSI M07), oral rinses vs vancomycin; assay type: cell-based; details: ATCC29213, read-out: MIC (mg/L) Mean
Text: The purpose of this experiment was to determine the potency of one embodiment of the oral rinse on three common gram-positive cocci species tested: Staphylococcus aureus, Streptococcus pneumoniae, Streptococcus pyogenes by determining the minimal inhibitory concentrations (MIC) of the oral rinse on each species. The oral rinse was compared to vancomycin, a common antibiotic used to treat various infections.
The embodiment of the oral rinses (170915 and 171003) tested in this experiment included 10 ug/mL silver citrate complex, 4 mg/mL acemannan, 5 mg/mL Disodium EDTA, 0.1 mg/mL Hyaluronic acid, 2 mg/mL PVP, […] of masking and cherry flavor, purified water, and pH adjustment with tris(hydroxymethyl)aminomethane to a pH of 6.36 and pH of 6.40, respectively. The vancomycin control (Sigma-Aldrich, Cat: PHR1160-1G, Lot LRAA9717, 5120 ppm) was reconstituted 20.5 mg/4 mL RO water.
The antimicrobial activity of this embodiment of the oral rinse solution was tested using the microtube dilution method for determining minimal inhibitory concentrations (MIC) described in the Clinical and Laboratory Standards (CLSI) Methods for Dilution Antimicrobial Susceptibility Tests for Bacteria that Grow Aerobically, M07, 11th ed, Approved January 2018. […]

[14] = tested on: Staphylococcus aureus ATCC 29213; details: expected control range; cited from earlier work
[15] = tested on: Streptococcus pneumoniae ATCC 49619; details: expected control range; cited from earlier work
[16] = total body contents from past cases; cited from earlier work
[17] = estimated from animal studies in mice, rats, dogs, and monkeys; cited from earlier work
[18] = according to the EPA; cited from earlier work

Molecule: acemannan
- cytotoxicity [1]: non-cytotoxic
- adverse effects or allergic reactions (healthy patients): No patients reported adverse effects or allergic reactions
- pre- versus post-test blood values (kidney and liver function) (healthy patients): no statistical difference

Molecule: OC(Cn1cncn1)(Cn1cncn1)c1ccc(F)cc1F [Fluconazole]
- MIC Control Range [2]: 8 to 64 µg/mL
- MIC [3]: 1.2 mg/L
- MIC [4]: 1.2 mg/L
- MIC [5]: 24 mg/L
- MIC [6]: 0.5 mg/L
- MIC [7]: 0.5 mg/L
- MIC [8]: 7.3 mg/L
- MIC [9]: 1.67 mg/L (≈ 5.44 µM)
- MIC [10]: 14.7 mg/L (≈ 47.9 µM)
- MIC [11]: 0.583 mg/L (≈ 1.9 µM)
- MIC Control Range [12]: 0.5 to 4.0 µg/mL

Molecule: C[C@@H]1[C@H](O)[C@@H](C)/C=C/C=C/CC/C=C/C=C/C=C/C=C/C(O[C@H]2O[C@H](C)[C@@H](O)[C@H](N)[C@@H]2O)CC2O[C@](O)(CC(O)C(O)CCC(O)CC(O)CC(O)CC(=O)O[C@H]1C)CC(O)C2C(=O)O (stereo partly shown) [Nystatin]
- MIC (mg/L) Mean ([3]; RPMI + 2% glucose): 2.7 mg/L
- MIC (mg/L) Mean ([4]; RPMI + 2% glucose): 3.9 mg/L
- MIC (mg/L) Mean ([5]; RPMI + 2% glucose): 5.4 mg/L
- MIC (mg/L) Mean ([6]; RPMI + 2% glucose): 2.2 mg/L
- MIC (mg/L) Mean ([7]; RPMI + 2% glucose): 4.8 mg/L
- MIC (mg/L) Mean ([8]; RPMI + 2% glucose): 2.7 mg/L

Molecule: Silver citrate complex
- MIC (mg/L) Mean ([9]; CLSI M27, RPMI): 0.088 mg/L
- MIC (mg/L) Mean ([10]; CLSI M27, RPMI): 0.117 mg/L
- MIC (mg/L) Mean ([11]; CLSI M27, RPMI): 0.234 mg/L

Molecule: Nc1[nH]c(=O)ncc1F [Flucytosine]
- MIC Control Range [2]: 4 to 16 µg/mL
- MIC [9]: 0.063 mg/L (≈ 0.488 µM)
- MIC [10]: 3.67 mg/L (≈ 28.4 µM)
- MIC [11]: 0.25 mg/L (≈ 1.94 µM)
- MIC Control Range [12]: 0.06 to 0.25 µg/mL

Molecule: CN[C@H](CC(C)C)C(=O)N[C@H]1C(=O)N[C@@H](CC(N)=O)C(=O)N[C@H]2C(=O)N[C@H]3C(=O)N[C@H](C(=O)N[C@H](C(=O)O)c4cc(O)cc(O)c4-c4cc3ccc4O)[C@H](O)c3ccc(c(Cl)c3)Oc3cc2cc(c3O[C@@H]2O[C@H](CO)[C@@H](O)[C@H](O)[C@H]2O[C@H]2C[C@](C)(N)[C@H](O)[C@H](C)O2)Oc2ccc(cc2Cl)[C@H]1O [Vancomycin]
- MIC [13]: 0.7 mg/L (≈ 0.483 µM)
- MIC Control Range [14]: Vancomycin (Control 0.5-2.0) mg/L
- MIC Control Range [15]: Vancomycin (Control 0.06-0.5) mg/L

Molecule: CN(C)c1ccc(C(=C2C=CC(=[N+](C)C)C=C2)c2ccc(N(C)C)cc2)cc1 [Gentian Violet]
- MIC [3]: 0.2 mg/L
- MIC [4]: 0.3 mg/L
- MIC [5]: 0.3 mg/L
- MIC [6]: 0.3 mg/L
- MIC [7]: 0.3 mg/L
- MIC [8]: 1.02 mg/L

Molecule: [Ag] [silver]
- total amount of silver required to cause argyria [16]: 3.8 to 6.4 g
- human elimination of silver from oral ingestion [17]: 90%
- safe lifetime continuous exposure [18]: 5 micrograms/kg/day
